Data taken from paper PMC7211195 (Investigational New Drugs, 2019).
Read-outs that look alike come from different tables or passages of the source.

Assay: Lapatinib pharmacokinetics and uptake in rat brain tissue (BT);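 on BT corr (BT homogenate corrected), single rat: brain concentration corrected for residual brain blood by the Fridén method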;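 on BT corr (BT homogenate), single rat: brain concentration corrected for residual brain blood by the Fridén method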
Assay type: in vivo, rats
Details: male, Wistar, rat; for AUC(0-inf) / AUC(0-t) / Cmax / Tmax / k el: brain tissue
Experimental: This study was conducted on rats, which are a promising model to predict P-gp-based drug-drug interactions at the human BBB [15]. The animals were allowed to acclimate for one week before the beginning of the experiments. Adult male Wistar-strain rats (weight 470–525 g) were used in the study. The animals were maintained under standard breeding conditions with a 12/12 h light-dark cycle (lights on at 6.00 a.m., lights off at 6.00 p.m.) at constant room temperature (23 ± 2 °C), relative humidity (55 ± 10%) and ad libitum access to food and water. The experimental protocol for this study was reviewed and approved by the Local Ethics Committee. To obtain consistent data, the study was based on the required minimum number of animals and observation time. […] Three rats were used at each time point (n = 3). In total, the research was conducted on 66 animals (n = 33 in the experimental group and n = 33 in the control group).
Elacridar was freshly dissolved in a vehicle at an initial concentration of 20 mg/mL. […] A volume of 80 μL of blood was collected from each rat by cutting off a piece of its tail. The blood samples were collected into heparinized test tubes at the following time points: […], and they were immediately centrifuged at 2880 g for 10 min at 4 °C. The anaesthetized rats (anaesthetized by intramuscular administration of 50 mg/kg ketamine and 10 mg/kg xylazine) were prepared for cisterna magna puncture. The hair over the puncture was removed and the skin was disinfected with alcohol. The animals were placed in a recumbent position with an elevated rear part of the body. The animals’ heads were slightly flexed and immobilized with the operator’s left hand. The space between the occiput rostrally and the atlas (C1) of the spinal column caudally was gently palpated with the left thumb. A 0.7 × 20 G needle with polyethylene tubing (Terumo Poland, Warsaw, Poland) was gently inserted at an approximate angle of 80–90° through the skin with the operator’s right hand into the midsagittal region. The moment that dura mater perforation was perceptible, a small amount of CSF was found in the needle tubing. To sample additional CSF, a 1 mL insulin syringe (Becton Dickinson, Warsaw, Poland) was used to collect 80–120 μL of CSF by very gentle aspiration. Only clear CSF was collected for further analysis. […] The animals’ brains were immediately dissected, washed in 0.9% NaCl and divided along the longitudinal axis. One of the brain hemispheres was again rinsed three times with 5 mL of 0.9% NaCl, weighed and homogenized with 0.9% NaCl (4 mL per 1 g of BT) in an Ultra-Turrax homogenizer (Witko, Łódź, Poland). The homogenate was then centrifuged at 4500 g for 10 min. All samples of the rat BP, CSF, and BT homogenate supernatant were stored at −80 °C until analysis.
The chromatographic analysis was conducted using a 1260 Infinity system (Agilent Technologies, Santa Clara, USA) equipped with a Kinetex® C18 column (50 × 4.6 mm, 2.6 μm, Phenomenex, Torrance, USA), which was maintained at 35 °C. The mobile phase consisted of 0.1% formic acid (v/v) in water with 5 mM ammonium formate (solvent A) and acetonitrile with 10% phase A (v/v, solvent B). The analyte and internal standard (IS, erlotinib) were eluted using a gradient run of 10 min as follows: 95% A at 0–2 min; 95%–5% A at 2–4 min; 5% A at 4–5 min; 5%–95% A at 5–6 min; 95% A at 6–10 min. The flow rate and injection volume were set at 0.7 mL/min and 10 μL, respectively. The needle was washed for 30 s in a mixture of acetonitrile, methanol, isopropanol, water, and formic acid (50:20:15:15:0.25, v/v/v/v/v).

[1] = brain tissue homogenate, oral, lapatinib 100 mg/kg + elacridar, read-out: BT corr (BT homogenate), S
[2] = brain tissue homogenate, oral, lapatinib 100 mg/kg + elacridar, read-out: BT corr (BT homogenate), single rat
[3] = brain tissue homogenate, po, 100 mg/kg, lapatinib p.o. 100 mg/kg alone, read-out: BT corr (BT homogenate corrected), S
[4] = brain tissue homogenate, po, 100 mg/kg, lapatinib p.o. 100 mg/kg alone, read-out: BT corr (BT homogenate corrected), single rat
[5] = brain tissue homogenate, po, 100 mg/kg, lapatinib p.o. 100 mg/kg alone, read-out: Clapatinib in BT, S (medium value)
[6] = brain tissue homogenate, po, 100 mg/kg, lapatinib p.o. 100 mg/kg alone, read-out: Clapatinib in BT, single rat
[7] = brain, oral, lapatinib 100 mg/kg + elacridar, read-out: BT corr (BT homogenate), single rat
[8] = brain, oral, lapatinib 100 mg/kg + elacridar, read-out: Clapatinib in BT, S
[9] = brain, oral, lapatinib 100 mg/kg + elacridar, read-out: Clapatinib in BT, single rat
[10] = brain, po, 100 mg/kg, lapatinib 100 mg/kg oral + 5 mg/kg elacridar (IE+L)
[11] = brain, po, 100 mg/kg, lapatinib 100 mg/kg oral alone (IIL)

SMILES: CS(=O)(=O)CCNCc1ccc(-c2ccc3ncnc(Nc4ccc(OCc5cccc(F)c5)c(Cl)c4)c3c2)o1 [lapatinib, N-{3-Chloro-4-[(3-fluorobenzyl)oxy]phenyl}-6-[5-({[2-(methylsulfonyl)ethyl]amino}methyl)-2-furyl]-4-quinazolinamine]
- concentration at 2 h [1]: 71.3 ng/mL
- concentration at 3 h [1]: 198 ng/mL
- concentration at 3 h [2]: 170 ng/mL
- concentration at 4 h [1]: 85 ng/mL
- concentration at 4 h [2]: 91.9 ng/mL
- concentration at 6 h [1]: 85.8 ng/mL
- concentration at 6 h [2]: 87.3 ng/mL
- concentration at 8 h [1]: 85 ng/mL
- concentration at 8 h [2]: 91.5 ng/mL
- concentration at 12 h [1]: 54.4 ng/mL
- concentration at 12 h [2]: 63.6 ng/mL
- concentration at 24 h [1]: 44.7 ng/mL
- concentration at 24 h [2]: 52.7 ng/mL
- concentration at 0.25 h [3]: 27.9 ng/mL
- concentration at 0.25 h [4]: 22.5 ng/mL
- concentration at 0.25 h [5]: 34.3 ng/mL
- concentration at 0.25 h [6]: 27.7 ng/mL
- concentration at 0.5 h [3]: 31.5 ng/mL
- concentration at 0.5 h [4]: 24 ng/mL
- concentration at 0.5 h [5]: 44.9 ng/mL
- concentration at 0.5 h [6]: 36.2 ng/mL
- concentration at 1 h [3]: 55.5 ng/mL
- concentration at 1 h [4]: 48.1 ng/mL
- concentration at 1 h [5]: 76 ng/mL
- concentration at 1 h [6]: 66.5 ng/mL
- concentration at 2 h [3]: 41.4 ng/mL
- concentration at 2 h [4]: 30.1 ng/mL
- concentration at 2 h [5]: 63.7 ng/mL
- concentration at 2 h [6]: 49.8 ng/mL
- concentration at 3 h [3]: 111 ng/mL
- concentration at 3 h [4]: 139 ng/mL
- concentration at 3 h [5]: 134 ng/mL
- concentration at 3 h [6]: 115 ng/mL
- concentration at 4 h [3]: 115 ng/mL
- concentration at 4 h [4]: 94.2 ng/mL
- concentration at 4 h [5]: 147 ng/mL
- concentration at 4 h [6]: 133 ng/mL
- concentration at 6 h [3]: 81.9 ng/mL
- concentration at 6 h [5]: 101 ng/mL
- concentration at 6 h [6]: 131 ng/mL
- concentration at 8 h [3]: 66.2 ng/mL
- concentration at 8 h [4]: 87.5 ng/mL
- concentration at 8 h [5]: 85.5 ng/mL
- concentration at 8 h [6]: 108 ng/mL
- concentration at 12 h [5]: 59.6 ng/mL
- concentration at 0.25 h [7]: 30.7 ng/mL
- concentration at 0.25 h [8]: 40.8 ng/mL
- concentration at 0.25 h [9]: 37.6 ng/mL
- concentration at 0.5 h [7]: 45.2 ng/mL
- concentration at 0.5 h [8]: 58.8 ng/mL
- concentration at 0.5 h [9]: 62 ng/mL
- concentration at 1 h [8]: 98.6 ng/mL
- concentration at 1 h [9]: 95.2 ng/mL
- concentration at 2 h [8]: 102 ng/mL
- concentration at 3 h [8]: 221 ng/mL
- concentration at 3 h [9]: 198 ng/mL
- concentration at 4 h [8]: 97.6 ng/mL
- concentration at 4 h [9]: 107 ng/mL
- concentration at 6 h [8]: 98.7 ng/mL
- concentration at 6 h [9]: 100 ng/mL
- concentration at 8 h [8]: 102 ng/mL
- concentration at 8 h [9]: 98.5 ng/mL
- concentration at 12 h [9]: 86.5 ng/mL
- concentration at 24 h [8]: 56.9 ng/mL
- concentration at 24 h [9]: 65.5 ng/mL
- AUC(0-inf) [10]: 2520 ± 611 ng·h/mL
- AUC(0-t) [10]: 1610 ± 131 ng·h/mL
- Cmax [10]: 198 ± 39 ng/mL
- Tmax [10]: 3 h
- k el [10]: 1.39e-05 s⁻¹
- AUC(0-inf) [11]: 1350 ± 712 ng·h/mL
- AUC(0-t) [11]: 836 ± 21.2 ng·h/mL
- Cmax [11]: 128 ± 16.4 ng/mL
- Tmax [11]: 4.5 ± 2.12 h
- k el [11]: 6.94e-05 s⁻¹
- concentration at 12 h (brain, po, 100 mg/kg, lapatinib p.o. 100 mg/kg alone, read-out: BT corr (BT homogenate corrected), S): 44.5 ng/mL
